Key:
CYP125A13 [1] = molecular target: T1, CYP125A13 (Streptomyces peucetius, UniProt Q70AR4); test: UV-Vis spectral titration (type I shift), tight-binding quadratic fit; no product formation detected
T1 construct: gene cyp0266
T1 sequence (Q70AR4 1-413): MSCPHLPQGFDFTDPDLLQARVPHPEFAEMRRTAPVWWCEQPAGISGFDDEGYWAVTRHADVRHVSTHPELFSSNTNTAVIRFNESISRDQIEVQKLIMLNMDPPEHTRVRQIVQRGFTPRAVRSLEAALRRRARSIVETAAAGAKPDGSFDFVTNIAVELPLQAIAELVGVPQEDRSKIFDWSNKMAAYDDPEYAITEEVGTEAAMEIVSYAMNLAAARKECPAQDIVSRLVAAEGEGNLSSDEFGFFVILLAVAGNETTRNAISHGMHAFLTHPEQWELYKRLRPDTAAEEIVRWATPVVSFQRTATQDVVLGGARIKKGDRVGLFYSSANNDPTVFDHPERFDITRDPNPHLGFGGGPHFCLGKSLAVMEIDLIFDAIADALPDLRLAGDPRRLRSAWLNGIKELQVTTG

CYP125A13 [2] = molecular target: T1, CYP125A13; test: UV-Vis spectral titration (type I shift), tight-binding quadratic fit; also turnover to 27-hydroxycholesterol with PDX/PDR (Km […])

Question: With CC(C)CCC[C@@H](C)[C@H]1CC[C@H]2[C@@H]3CCC4=CC(=O)CC[C@]4(C)[C@H]3CC[C@]12C [4-cholesten-3-one] as the molecule, how does the Kd (CYP125A13 [1]) read?
Answer: Its Kd is 59.2 ± 3.9 µM.

Question: Which Kd (CYP125A13 [2]) does the source give for CC(C)CCC[C@@H](C)[C@H]1CC[C@H]2[C@@H]3CC=C4C[C@@H](O)CC[C@]4(C)[C@H]3CC[C@]12C [cholesterol] here?
Answer: Its Kd is 56.9 ± 11.3 µM.

Source: article PMC9728343, “Characterization of CYP125A13, the First Steroid C-27 Monooxygenase from Streptomyces peucetius ATCC27952” (Journal of Microbiology and Biotechnology, 2020)
